Experimental data published in patent US20250387369A1 (priority 2022, published 2025).
pIC50: −log10 of the molar value.

Key:
[1] = tested on: type A influenza virus (H1N1 subtype); test: microbe, parasite or virus in culture; type: cell-based; conditions: H1N1, Calu-3, 48 h
[2] = tested on: Ebola virus-derived trVLP; test: microbe, parasite or virus in culture; type: cell-based; conditions: Zaire ebolavirus, Huh-7, 48 h

Row | SMILES | pIC50 [1] | pIC50 [2]
1 | NC(=O)c1nc(F)c[nH]c1=O [Favipiravir] | 5.02 | –
2 | CCC(CC)COC(=O)[C@H](C)N[P@](=O)(OC[C@H]1O[C@@](C#N)(c2ccc3c(N)ncnn23)[C@H](O)[C@@H]1O)Oc1ccccc1 [Remdesivir] | – | 7.00
